# Assay results as given in ChEMBL document CHEMBL6127063, “N-substituted-4-(pyridin-4-ylalkyl)piperazine-1-carboxamides and related compounds as Leishmania CYP51 and CYP5122A1 inhibitors” (Bioorg Med Chem, 2024).
# Active and inactive are the calls of the source. The rule behind the calls is not given here.
# Tests used:
# Leishmania donovani [1] = assay: Antileishmanial activity against Leishmania donovani LV82 promastigotes assessed as inhibition of parasite proliferation; assay type: functional, organism-based
# Leishmania donovani [2] = assay: Antileishmanial activity against Leishmania donovani promastigotes infected in mouse J774 cells assessed as inhibition of parasite proliferation; assay type: functional, organism-based
# [3] = Inhibition of full length his-tagged recombinant Leishmania donovani CYP51-32c
# Leishmania donovani [4] = assay: Antileishmanial activity against Leishmania donovani overexpressing CYP5122A1 at 1.2 to […]; assay type: functional, organism-based; details: dose 1.2-3.7 µM
# Leishmania major [5] = assay: Effect on lanosterol level in Leishmania major LV39 promastigotes assessed as fold change at 25 uM incubated for 48 hrs by LC-MS/MS analysis; assay type: functional
# Leishmania major [6] = assay: Effect on 4-CH2OH-LS sterol level in Leishmania major LV39 promastigotes assessed as fold change at 25 uM incubated for 48 hrs by LC-MS/MS analysis; assay type: functional
# Leishmania major [7] = assay: Effect on 4,14-Dimethylzymosterol level in Leishmania major LV39 promastigotes assessed as fold change at 25 uM incubated for 48 hrs by LC-MS/MS analysis; assay type: functional
# Leishmania major [8] = assay: Effect on 14-methylzymosterol level in Leishmania major LV39 promastigotes assessed as fold change at 25 uM incubated for 48 hrs by LC-MS/MS analysis; assay type: functional
# Leishmania major [9] = assay: Effect on 14-Methylfecosterol level in Leishmania major LV39 promastigotes assessed as fold change at 25 uM incubated for 48 hrs by LC-MS/MS analysis; assay type: functional
# Leishmania major [10] = assay: Effect on 4-Methylzymosterol level in Leishmania major LV39 promastigotes assessed as fold change at 25 uM incubated for 48 hrs by LC-MS/MS analysis; assay type: functional
# Leishmania major [11] = assay: Effect on Zymosterol level in Leishmania major LV39 promastigotes assessed as fold change at 25 uM incubated for 48 hrs by LC-MS/MS analysis; assay type: functional
# Leishmania major [12] = assay: Effect on Fecosterol level in Leishmania major LV39 promastigotes assessed as fold change at 25 uM incubated for 48 hrs by LC-MS/MS analysis; assay type: functional
# Leishmania major [13] = assay: Effect on Episterol level in Leishmania major LV39 promastigotes assessed as fold change at 25 uM incubated for 48 hrs by LC-MS/MS analysis; assay type: functional
# Leishmania major [14] = assay: Effect on Cholesta-7,24-dienol level in Leishmania major LV39 promastigotes assessed as fold change at 25 uM incubated for 48 hrs by LC-MS/MS analysis; assay type: functional
# Leishmania major [15] = assay: Effect on 7-Dehydrodesmosterol level in Leishmania major LV39 promastigotes assessed as fold change at 25 uM incubated for 48 hrs by LC-MS/MS analysis; assay type: functional
# Leishmania major [16] = assay: Effect on 5-Dehydroepisterol level in Leishmania major LV39 promastigotes assessed as fold change at 25 uM incubated for 48 hrs by LC-MS/MS analysis; assay type: functional
# Leishmania major [17] = assay: Effect on Ergosta-5,7-dienol level in Leishmania major LV39 promastigotes assessed as fold change at 25 uM incubated for 48 hrs by LC-MS/MS analysis; assay type: functional
# Leishmania major [18] = assay: Effect on Ergostatetraenol level in Leishmania major LV39 promastigotes assessed as fold change at 25 uM incubated for 48 hrs by LC-MS/MS analysis; assay type: functional
# Leishmania major [19] = assay: Effect on Ergosterol level in Leishmania major LV39 promastigotes assessed as fold change at 25 uM incubated for 48 hrs by LC-MS/MS analysis; assay type: functional
# Leishmania major [20] = assay: Effect on Cholesterol level in Leishmania major LV39 promastigotes assessed as fold change at 25 uM incubated for 48 hrs by LC-MS/MS analysis; assay type: functional
# Leishmania donovani [21] = assay: Antileishmanial activity against Leishmania donovani LV82 promastigotes infected in female mouse Peritoneal macrophage cells incubated for 72 hrs by DAPI staining based analysis; assay type: functional, organism-based
# Leishmania major [22] = assay: Effect on lanosterol level in Leishmania major LV39 promastigotes assessed as fold change at 2 uM incubated for 48 hrs by LC-MS/MS analysis; assay type: functional
# Leishmania major [23] = assay: Effect on 4-CH2OH-LS sterol level in Leishmania major LV39 promastigotes assessed as fold change at 2 uM incubated for 48 hrs by LC-MS/MS analysis; assay type: functional
# Leishmania major [24] = assay: Effect on 4,14-Dimethylzymosterol level in Leishmania major LV39 promastigotes assessed as fold change at 2 uM incubated for 48 hrs by LC-MS/MS analysis; assay type: functional
# Leishmania major [25] = assay: Effect on 14-methylzymosterol level in Leishmania major LV39 promastigotes assessed as fold change at 2 uM incubated for 48 hrs by LC-MS/MS analysis; assay type: functional
# Leishmania major [26] = assay: Effect on 14-Methylfecosterol level in Leishmania major LV39 promastigotes assessed as fold change at 2 uM incubated for 48 hrs by LC-MS/MS analysis; assay type: functional
# Leishmania major [27] = assay: Effect on 5-Dehydroepisterol level in Leishmania major LV39 promastigotes assessed as fold change at 2 uM incubated for 48 hrs by LC-MS/MS analysis; assay type: functional
# Leishmania major [28] = assay: Effect on Ergosta-5,7-dienol level in Leishmania major LV39 promastigotes assessed as fold change at 2 uM incubated for 48 hrs by LC-MS/MS analysis; assay type: functional
# Leishmania major [29] = assay: Effect on Ergosterol level in Leishmania major LV39 promastigotes assessed as fold change at 2 uM incubated for 48 hrs by LC-MS/MS analysis; assay type: functional
# Leishmania major [30] = assay: Effect on Cholesterol level in Leishmania major LV39 promastigotes assessed as fold change at 2 uM incubated for 48 hrs by LC-MS/MS analysis; assay type: functional
# Leishmania major [31] = assay: Effect on lanosterol level in Leishmania major LV39 promastigotes assessed as fold change at 17 uM incubated for 48 hrs by LC-MS/MS analysis; assay type: functional
# Leishmania major [32] = assay: Effect on 4-CH2OH-LS sterol level in Leishmania major LV39 promastigotes assessed as fold change at 17 uM incubated for 48 hrs by LC-MS/MS analysis; assay type: functional
# Leishmania major [33] = assay: Effect on 4,14-Dimethylzymosterol level in Leishmania major LV39 promastigotes assessed as fold change at 17 uM incubated for 48 hrs by LC-MS/MS analysis; assay type: functional
# Leishmania major [34] = assay: Effect on 14-methylzymosterol level in Leishmania major LV39 promastigotes assessed as fold change at 17 uM incubated for 48 hrs by LC-MS/MS analysis; assay type: functional
# Leishmania major [35] = assay: Effect on 4-Methylzymosterol level in Leishmania major LV39 promastigotes assessed as fold change at 17 uM incubated for 48 hrs by LC-MS/MS analysis; assay type: functional
# Leishmania major [36] = assay: Effect on Zymosterol level in Leishmania major LV39 promastigotes assessed as fold change at 17 uM incubated for 48 hrs by LC-MS/MS analysis; assay type: functional
# Leishmania major [37] = assay: Effect on Fecosterol level in Leishmania major LV39 promastigotes assessed as fold change at 17 uM incubated for 48 hrs by LC-MS/MS analysis; assay type: functional
# Leishmania major [38] = assay: Effect on Episterol level in Leishmania major LV39 promastigotes assessed as fold change at 17 uM incubated for 48 hrs by LC-MS/MS analysis; assay type: functional
# Leishmania major [39] = assay: Effect on Cholesta-7,24-dienol level in Leishmania major LV39 promastigotes assessed as fold change at 17 uM incubated for 48 hrs by LC-MS/MS analysis; assay type: functional
# Leishmania major [40] = assay: Effect on 7-Dehydrodesmosterol level in Leishmania major LV39 promastigotes assessed as fold change at 17 uM incubated for 48 hrs by LC-MS/MS analysis; assay type: functional
# Leishmania major [41] = assay: Effect on 5-Dehydroepisterol level in Leishmania major LV39 promastigotes assessed as fold change at 17 uM incubated for 48 hrs by LC-MS/MS analysis; assay type: functional
# Leishmania major [42] = assay: Effect on Ergosta-5,7-dienol level in Leishmania major LV39 promastigotes assessed as fold change at 17 uM incubated for 48 hrs by LC-MS/MS analysis; assay type: functional
# Leishmania major [43] = assay: Effect on Ergostatetraenol level in Leishmania major LV39 promastigotes assessed as fold change at 17 uM incubated for 48 hrs by LC-MS/MS analysis; assay type: functional
# Leishmania major [44] = assay: Effect on Ergosterol level in Leishmania major LV39 promastigotes assessed as fold change at 17 uM incubated for 48 hrs by LC-MS/MS analysis; assay type: functional
# Leishmania major [45] = assay: Effect on Cholesterol level in Leishmania major LV39 promastigotes assessed as fold change at 17 uM incubated for 48 hrs by LC-MS/MS analysis; assay type: functional
compound,measurement,setting,value
CC(C)Oc1cccc(NC(=O)N2CCN(Cc3ccncc3)CC2)c1,EC50,Leishmania donovani [1],> 50 µM
Cc1ccccc1NC(=O)N1CCN(Cc2ccncc2)CC1,EC50,Leishmania donovani [1],> 100 µM
O=C(Nc1ccc(Cl)cc1)N1CCN(Cc2ccncc2)CC1,EC50,Leishmania donovani [1],> 100 µM
Cc1cc(NC(=O)N2CCN(Cc3ccncc3)CC2)cc(C)c1C,EC50,Leishmania donovani [1],> 50 µM
O=C(Nc1cccc(Cl)c1)N1CCN(Cc2ccncc2)CC1,EC50,Leishmania donovani [1],> 100 µM
O=C(Nc1ccc(OCc2cc(C(F)(F)F)cc(C(F)(F)F)c2)cc1)N1CCN(CCn2cncn2)CC1,EC50,Leishmania donovani [1],> 50 µM
same,EC50,Leishmania donovani [2],> 50 µM
O=C(Nc1ccc(OCc2cc(C(F)(F)F)cc(C(F)(F)F)c2)cc1)N1CCN(CCc2ccccc2)CC1,IC50,[3],> 100 µM
same,EC50,Leishmania donovani [1],> 13 µM
COc1ccc(NC(=O)N2CCN(Cc3ccncc3)CC2)cc1,EC50,Leishmania donovani [1],> 100 µM
COc1cccc(NC(=O)N2CCN(Cc3ccncc3)CC2)c1,EC50,Leishmania donovani [1],> 100 µM
O=C(Nc1ccc(OCc2cc(C(F)(F)F)cc(C(F)(F)F)c2)cc1)N1CCN(CCc2ccncc2)CC1,Activity,Leishmania donovani [4],Active
O=C(Nc1ccccc1Cl)N1CCN(Cc2ccncc2)CC1,EC50,Leishmania donovani [1],> 100 µM
COc1cc(NC(=O)N2CCN(Cc3ccncc3)CC2)cc(OC)c1,EC50,Leishmania donovani [1],> 100 µM
O=C(Nc1ccc(OCc2ccccc2)cc1)N1CCN(CCc2ccncc2)CC1,EC50,Leishmania donovani [1],> 100 µM
O=C(Nc1ccc(C(F)(F)F)cc1)N1CCN(Cc2ccncc2)CC1,EC50,Leishmania donovani [1],> 50 µM
OC(Cn1cncn1)(Cn1cncn1)c1ccc(F)cc1F [FLUCONAZOLE],fold change (FC),Leishmania major [5],0.47
same,fold change (FC),Leishmania major [6],0.42
same,fold change (FC),Leishmania major [7],1.8
same,fold change (FC),Leishmania major [8],4.5
same,fold change (FC),Leishmania major [9],229
same,fold change (FC),Leishmania major [10],0.6
same,fold change (FC),Leishmania major [11],0.39
same,fold change (FC),Leishmania major [12],0.6
same,fold change (FC),Leishmania major [13],0.6
same,fold change (FC),Leishmania major [14],0.38
same,fold change (FC),Leishmania major [15],0.044
same,fold change (FC),Leishmania major [16],0.25
same,fold change (FC),Leishmania major [17],0.17
same,fold change (FC),Leishmania major [18],0.37
same,fold change (FC),Leishmania major [19],0.31
same,fold change (FC),Leishmania major [20],0.53
O=C(Nc1ccccc1)N1CCN(Cc2ccncc2)CC1,EC50,Leishmania donovani [1],> 100 µM
Cc1cc(C)cc(NC(=O)N2CCN(Cc3ccncc3)CC2)c1,EC50,Leishmania donovani [1],> 50 µM
O=C(Nc1ccc(OCc2cc(C(F)(F)F)cc(C(F)(F)F)c2)cc1)N1CCN(CCCc2ccccc2)CC1,EC50,Leishmania donovani [1],> 50 µM
CC(C)(C)c1cccc(NC(=O)N2CCN(Cc3ccncc3)CC2)c1,EC50,Leishmania donovani [2],> 50 µM
same,EC50,Leishmania donovani [21],> 50 µM
CC[C@@H]([C@H](C)O)n1ncn(-c2ccc(N3CCN(c4ccc(OC[C@@H]5CO[C@@](Cn6cncn6)(c6ccc(F)cc6F)C5)cc4)CC3)cc2)c1=O [POSACONAZOLE],fold change (FC),Leishmania major [22],3.6
same,fold change (FC),Leishmania major [23],1.4
same,fold change (FC),Leishmania major [24],10
same,fold change (FC),Leishmania major [25],3.1
same,fold change (FC),Leishmania major [26],321
same,fold change (FC),Leishmania major [27],0.02
same,fold change (FC),Leishmania major [28],0.022
same,fold change (FC),Leishmania major [29],0.027
same,fold change (FC),Leishmania major [30],1.3
O=C(Nc1cc(F)cc(F)c1)N1CCN(Cc2ccncc2)CC1,EC50,Leishmania donovani [1],> 100 µM
O=C(Nc1ccc(OCc2cc(C(F)(F)F)cc(C(F)(F)F)c2)cc1)N1CCN(CCn2ccnc2)CC1,fold change (FC),Leishmania major [31],31
same,fold change (FC),Leishmania major [32],1.6
same,fold change (FC),Leishmania major [33],1
same,fold change (FC),Leishmania major [34],0.48
same,fold change (FC),Leishmania major [35],3.2
same,fold change (FC),Leishmania major [36],3.4
same,fold change (FC),Leishmania major [37],3.2
same,fold change (FC),Leishmania major [38],3.2
same,fold change (FC),Leishmania major [39],3.3
same,fold change (FC),Leishmania major [40],0.95
same,fold change (FC),Leishmania major [41],0.69
same,fold change (FC),Leishmania major [42],0.16
same,fold change (FC),Leishmania major [43],2.4
same,fold change (FC),Leishmania major [44],0.42
same,fold change (FC),Leishmania major [45],1.9
Cc1cccc(NC(=O)N2CCN(Cc3ccncc3)CC2)c1,EC50,Leishmania donovani [1],> 100 µM
O=C(Nc1ccc(F)cc1)N1CCN(Cc2ccncc2)CC1,EC50,Leishmania donovani [1],> 100 µM
Cc1ccc(NC(=O)N2CCN(Cc3ccncc3)CC2)cc1,EC50,Leishmania donovani [1],> 100 µM
O=C(Nc1cccc(F)c1)N1CCN(Cc2ccncc2)CC1,EC50,Leishmania donovani [1],> 100 µM
O=C(Nc1cc(C(F)(F)F)cc(C(F)(F)F)c1)N1CCN(Cc2ccncc2)CC1,EC50,Leishmania donovani [21],> 50 µM
